# Assay results taken from patent US6572880B2, “Methods and transdermal compositions for pain relief” (priority 1996, dated 2003).
# “Also recorded” adds a separate entry of the source. Counter-ions that a name gives are not always drawn.
# Key:
# [1] = skin irritation and side effects reported on transdermal administration; format: in vivo, human; settings: for overall assessment of side effects when administered transdermally: conclusion from the patient results
# Experimental: Preferably, a gel preparation is applied to the skin at the site or sites of pain. Patients can be evaluated by means of a structured evaluation form, e.g., completed at a frequency of at least one time per week. Evaluation of patients are for the present symptoms as well as any side effects from currently administered medications. This makes it possible to note changes on an ongoing basis.
# Patients in the examples above were evaluated by means of a structured evaluation form depicted in FIG. 1, which was completed at a frequency of at least one time per week for each patient receiving transdermal medication according to the present invention. The patients were evaluated both for all present psychiatric symptoms as well as any side effects from currently-administered medications.
# [2] = patient-reported pain relief after transdermal application to site of pain; format: in vivo, human; settings: for overall assessment of pain relief when administered transdermally: conclusion from the patient results
# Excerpt: Compositions according the examples 45 through 47, 53, 55 were transdermally applied to numerous patients, for the purpose of treating pain including as described in other examples herein, with the results summarized in Table I below.
# [3] = blood serum; cited from earlier work
# [4] = in vivo
# Experimental: A dosage of 40 mg per day was self-administered by a patient by application to the skin, for a period of at least 1 hour.
# Sertraline (Zoloft) gel was prepared, according to the procedures of example 9. A dosage of 100 mg per day was self-administered by a patient by application to the skin, for a period of at least 1 hour.
# A dosage of 20 mg per day was self-administered by a patient by application to the skin, for a period of at least 1 hour.
# Carbamazepine (Tegretol) gel was prepared, according to the procedures of example 4. A dosage of 400 mg per day was self-administered by a patient by application to the skin, for a period of at least 1 hour.
# (§1) Carbamazepine (Tegretol) gel was prepared, according to the procedures of example 4. A dosage of 200 mg per day was self-administered by a patient by application to the skin, for a period of at least 1 hour.
# Sertraline (Zoloft) gel was prepared, according to the procedures of example 9. A dosage of 50 mg per day was self-administered by a patient by application to the skin, for a period of at least 1 hour.
# as §1
# A dosage of 100 mg per day was selfadministered by a patient by application to the skin, for a period of at least 1 hour.
# A dosage of 80-160 mg per day was self administered by a person by application to the skin, for a period of at least 1 hour. […] The dosage was then increased to 160 mg per day and administered by the same method.
# A dosage of 80-160 mg/day was self administered by a person by application to the skin, for a period of at least 1 hour. […] The dosage was then increased to 160 mg per day and administered by the same method.
# A dosage of 500-1000 mg was self administered by two male patients. Administration was by application to the skin, for a period of at least one hour.
# [5] = cited from earlier work
# [6] = summary of Table I, best result per patient
Structure (SMILES),overall assessment of side effects when administered transdermally [1],overall assessment of pain relief when administered transdermally [2],typical reference levels [3] [ng/mL],transdermal absorption as judged from blood level [4],solubility in water [5],other results
NCC1(CC(=O)O)CCCCC1 [Gabapentin],free of side effects,–,–,–,–,–
CN(C)CCC=C1c2ccccc2CCc2ccccc21 [amitriptyline],–,limited pain relief,–,–,–,–
CN(C)CCC=C1c2ccccc2COc2ccccc21 [doxepin],substantially free of side effects,effective pain relief medication,–,–,–,"overall assessment of pain relief when administered transdermally ([2]; listed as Doxepin): about three times the positive response rate; also recorded: substantially more effective than amitriptyline; percent reported pain relief: Major [2, 6]: 23.1%; percent reported pain relief: Mild [2, 6]: 7.7%; percent reported pain relief: Mild-moderate [2, 6]: 7.7%; percent reported pain relief: Total [2, 6]: 7.7%; percent reported pain relief: moderate [2, 6]: 53.8%"
COc1ccccc1OCC(O)CO (centres unmarked) [Guaifenesin],–,"benefit as an adjunctive treatment, of painful spasticity",–,–,–,–
CNCCC(Oc1ccc(C(F)(F)F)cc1)c1ccccc1 (centres unmarked) [Fluoxetine hydrochloride],–,–,50 to 480,–,–,–
CCCC(CCC)C(=O)O [Valproic acid],–,–,–,do not appear to be absorbed well or reliably,–,skin irritation ([1]; application to the skin): appears to cause skin irritation in some patients; typical therapeutic levels / therapeutic reference range [3]: 50 to 150 µg/mL
CC(NC(C)(C)C)C(=O)c1cccc(Cl)c1 (centres unmarked) [Buproprion],–,–,–,poor or equivocal absorptions and results,highly soluble,–
CN[C@H]1CC[C@@H](c2ccc(Cl)c(Cl)c2)c2ccccc21 [Sertraline hydrochloride],–,–,30 to 200,do not appear to be absorbed well or reliably,slightly soluble,solubility in ethanol [5]: sparingly soluble; solubility in isopropyl alcohol [5]: slightly soluble
NC(=O)N1c2ccccc2C=Cc2ccccc21 [Carbamazepine],appears to cause a rash in at least some patients,positive effects,–,good absorption,practically insoluble,solubility in alcohol and in acetone [5]: soluble; typical therapeutic levels / therapeutic reference range [3]: 4 to 10 µg/mL
Fc1ccc([C@@H]2CCNC[C@H]2COc2ccc3c(c2)OCO3)cc1 [Paroxetine hydrochloride],–,–,49 ± 26,–,–,–
